Values quoted from earlier work as cited in patent US7857962B2, “Potentiometric electrode, gradient polymer, uses and method of preparation therefor” (Universiteit Antwerpen, priority 2004, dated 2010).

Conditions: for Log P: organic acid analytes, n-octanol/water; for log P: basic drugs named for comparison

In the case of O=C(O)/C=C/C(=O)O [Fumaric, fumaric acid], the “Log P” value is given as “+0.49”.
In the case of CC(O)C(=O)O (centres unmarked) [Lactic, lactic acid], the “Log P” value is given as −1.31.
For O=C(O)CC(O)C(=O)O (centres unmarked) [Malic, malic acid], the “Log P” value is listed as −1.22.
In the case of O=C(O)CCC(=O)O [Succinic, succinic acid], the “Log P” value is listed as −1.11.
In the case of O=C(O)C(O)C(O)C(=O)O (centres unmarked) [Tartaric, tartaric acid], the “Log P” value is given as −1.39.
For Nc1c(Br)cc(Br)cc1CN[C@H]1CC[C@H](O)CC1 [ambroxol, reference compound], the “log P” value is given as 3.24.
In the case of CN(Cc1cc(Br)cc(Br)c1N)C1CCCCC1 [bromhexine, reference compound], the “log P” value is given as 4.03.
For CC(C)(C)NCC(O)c1cc(Cl)c(N)c(Cl)c1 (centres unmarked) [clenbuterol, reference compound], the “log P” value is listed as 2.91.
